Measured values taken from patent US10744127B2, “MDR-reversing 8-hydroxy-quinoline derivatives” (MAGYAR TUDOMÁNYOS AKADÉMIA TERMÉSZETTUDOMÁNYI KUTATÓKÖZPONT, priority 2016, dated 2020).
Read-outs that look alike come from different tables or passages of the source.

Columns and labels:
[1] = tested on: MES-SA/Dx5 cell line; assay: Cytotoxicity, PrestoBlue cell viability assay, MES-SA/Dx5; type: cell-based; conditions: Homo sapiens
Procedure: (§1) The human uterine sarcoma cell line MES-SA and its doxorubicin resistant counterpart MES-SA/Dx5 were obtained from ATCC (MES-SA: No. CRL-1976™, MES-SA-Dx5: No. CRL-1977™). MES-SA/Dx5 cells express high levels of P-gp, and therefore are multidrug resistant (MDR). Cells were cultured in DMEM supplemented with 10% FBS, 5 mmol/L glutamine and 50 unit/mL penicillin and streptomycin (Life Technologies).
(§2) Cell survival was measured by the PrestoBlue® Cell Viability Reagent (Life Technologies, USA). Cells were seeded in 100 μl medium at a density of 5000 cells/well in 96-well plates; the serially diluted drug was added the following day. Cells were then incubated for 72 hours at 37° C. in 5% CO2; the drug containing medium was removed, and the PrestoBlue® reagent was added according to the manufacturer's instructions. Fluorescence of the cells was measured by a Perkin Elmer EnSpire multimode plate reader or Perkin Elmer Victor X3 microplate reader. Data were background corrected and normalized to untreated cells. Curves were fitted with the help of Prism software using the sigmoidal dose-response model. Curve fit statistics were used to determine IC50 values. Differences between the IC50 values of the respective cell lines were analyzed by two-sided […] unpaired Student's t test and results were considered statistically significant at a P value of <0.05 (*) or 0.01 (**).

[2] = tested on: MES-SA cell line; assay: Cytotoxicity, PrestoBlue cell viability assay, parental MES-SA; type: cell-based; conditions: Homo sapiens; parental MES-SA cell line (Table 2a)
Procedure: as §1, §2

[3] = tested on: MES-SA and multidrug-resistant MES-SA/Dx5 cell line; assay: Selective toxicity (ratio of IC50 in MES-SA to IC50 in MES-SA/Dx5) and activity index; type: cell-based, human
Description: Compounds having P-gp potentiated MDR-selective activity can be characterized by their inhibitory concentration (IC) with regard to a specific cancer cell line. Usually the IC value is given at a certain percentage ratio of non-inhibited molecules or surviving cells. For example an IC20 value of a compound on a cell line means that at this inhibitory concentration of the compound 80% of the cells are killed whereas 20% of the cells are still viable. A further characteristic of MDR-selective drugs is the selectivity ratio (SR), which is the ratio of the IC value measured in a non-multidrug resistant cell line to (i.e. divided by) the IC value measured in the corresponding transformed, multidrug-resistant cell line. The inverse value, the resistance ratio (RR) is calculated as the ratio of a compound's IC value against a multidrug resistant cell line divided by the parallel IC value of the same compound against a control non-multidrug resistant cell line. The Activity Index (AI) is calculated here as the ratio of the compound's selectivity ratio (SR) and the compound's IC50 value against the resistant cell. The AI reflects the level of simultaneous toxicity and selectivity towards multidrug-resistant cancer cells.
as §1, §2
Selectivity towards multidrug-resistant cells is expressed as the ratio of the IC50 value measured in the parental MES-SA and multidrug-resistant MES-SA/Dx5 cell line (Selectivity Ratio, SR).
A novel characteristic of the compounds presented in this invention is that they exert their selective cytotoxicity at low IC50 values. Simultaneous toxicity and selectivity towards multidrug-resistant cancer cells is reflected by the Activity Index (AI) of the compounds, which is the ratio of the selectivity ratio (SR) and the IC50 value on the resistant cell line.

[4] = tested on: A431 and A431-B1 cell lines; assay: Selective toxicity in A431 and A431-B1 cell lines; type: cell-based, human; conditions: A431 versus P-gp-transfected A431-B1
Procedure: as §2
(§3) Data on selective toxicity (expressed as Selectivity Ratio, SR) in two MDR models engineered by retroviral transfection of P-glycoprotein (A431/A431-B1 and MDCK II/MDCK II B1 cell lines) are presented in Table 3 and Table 4.
(§4) A431 is a human epidermoid carcinoma cell line. Its derivative, the A431-B1 cell line expresses P-gp due to retroviral transfection of the mdr1 gene Türk, D. et al (Türk, D. et al., 2009). MDCK II is a canine kidney cell line. MDCK II B1 was created by inserting the mdr1 gene with transposons [Pape V F S et al. 2015] Both cell express P-gp stably, and show a stable MDR phenotype. Culture conditions were identical as in the case of MES-SA cells.

[5] = tested on: MDCK II and MDCK II B1 cell lines; assay: Selective toxicity towards MDCK II and MDCK II B1 cell lines; type: cell-based, canine; conditions: MDCK II versus MDCK II B1
Procedure: as §2, §3, §4

[6] = tested on: MES-SA and MES-SA/Dx5 cells; assay: Selective toxicity in the presence of the P-gp inhibitor tariquidar; type: cell-based, human; conditions: for SR (TQ): selectivity ratio in the presence of tariquidar (1 μM); for Selective toxicity in the presence of P-gp inhibitors: tariquidar
Procedure: In the presence of tariquidar (an inhibitor of P-gp function), the toxicity of the compounds selectively diminishes in multidrug-resistant MES-SA/Dx5 cells, while the toxicity is unchanged against parental MESSA cells, which is reflected by a decrease in the selectivity ratio (SR (TQ)).
To investigate the contribution of P-glycoprotein to the cytotoxic effect of a compound, cell survival was measured in the presence of the P-glycoprotein inhibitor tariquidar (1 μM). Tariquidar (CAS 206873-63-4) can be obtained e.g. from Selleck, Houston, USA.

[7] = tested on: P-gp-expressing MES-SA/Dx5 cells; assay: P-gp switch assay (Calcein AM); type: cell-based, human; conditions: for Fraction of P-gp-negative cells (P3) in the population / Fraction of P-gp-positive cells (P4) in the population: MES-SA/Dx5, single dose at IC20 (killing 80% of the cells), surviving population at 80% confluence, Calcein AM; for Loss of P-gp expression in MES-SA/Dx5 cells: single treatment (FIG. 1, Table 6)
Procedure: One million P-gp-expressing MES-SA/Dx5 cells were plated in a T25 cell culture flask. After 24 hours the compound of interest was added directly to the cells at a concentration corresponding to the IC20 value (killing 80% of the cells). After 5 days the culture media was removed, the cells were washed with PBS and the culture medium was exchanged. Cells were monitored daily and the recovery was recorded. The medium was changed every 5 days until the confluence of the cells reached 80%. At 80% confluence the cells were removed by gentle trypsinization, counted by an automated cell counter and stained with Calcein AM, a cellular dye able to detect the function of P-gp (Homolya 1993). P-gp-positivity was evaluated based on the ability of P-gp-expressing cells to extrude Calcein AM.

[8] = tested on: MES-SA/Dx5 cells; assay: Sensitivity of MES-SA/Dx5 cells to doxorubicin after a single treatment; type: cell-based, human; conditions: after treatment with a single dose (FIG. 3)
Description: The above treatment with compounds of the general Formula I results in a new, stable phenotype, with the complete resensitization of cells to conventional chemotherapy consisting of P-glycoprotein substrates such as doxorubicin (FIG. 3).
Curves show the sensitivity of MES-SA/Dx5 cells (P-gp overexpressing cell line established from MES-SA) to doxorubicin before and after treatment with a single dose of a state of the art compound (NSC693872) and two compounds relating to this invention (Example compounds No. 9 and No. 17). The sensitivity of MES-SA cells is shown as a reference (P-gp-negative parental cell line). […] (Values indicate the IC50 values (μM) derived from the cytotoxicity curves).

[9] = WO2010138686 and Türk et al. 2009; cited from earlier work
[10] = tested on: ABCB1-overexpressing and parental HEK293 cells; conditions: cited from earlier work
[11] = MES-SA/Dx5 (Table 2b), read-out: IC50 (μM) Dx5
[12] = Mes-sa/Dx5 cell line, PrestoBlue assay, 72 hours (Table 1), read-out: IC50
[13] = multidrug-resistant MES-SA/Dx5 cell line (Table 2a), read-out: IC50 (nM) in MES-SA/Dx5 cell line
[14] = MES-SA / MES-SA/Dx5, without tariquidar (Table 5)

melting point [°C] | SMILES | IC50 [1, 11] [µM] | IC50 [1, 12] [µM] | IC50 [1, 13] [µM] | IC50 [2] [nM] | SR ([3]; MES-SA / MES-SA/Dx5 (Table 2b)) | SR [3, 14] | Selectivity Ratio (SR) (A431/A431-B1) [4] | Selectivity Ratio (SR) (MDCK II/MDCK II B1) [5] | SR (TQ) [6] | Selective toxicity in the presence of P-gp inhibitors [6] | Fraction of P-gp-negative cells (P3) in the population [7] [%] | Fraction of P-gp-positive cells (P4) in the population [7] [%] | Loss of P-gp expression in MES-SA/Dx5 cells [7] | Resensitization of MES-SA/Dx5 cells to doxorubicin [8] | selectivity [9] | selectivity [10]
– | CCN(CC)Cc1ccc2cccnc2c1O [NSC693872, 7-(N,N-diethylaminomethyl)quinolin-8-ol, reference compound] | 1.58 | 1.58 | 1.58 | 7810 | 4.9 | 4.9 | 1.9 | 3.1 | 2.6 | retain a partial selective toxicity | 7.8 | 92.2 | insignificant loss | not sufficient to influence the resistance of the cells to doxorubicin | ~3.90 | –
69 to 71 | C/C(=N\Nc1ccc2ccc(CN3CCCCC3)c(O)c2n1)c1ccccn1 [Example 3, (E/Z)-7-(Piperidin-1ylmethyl)-2-(2-(1-(pyridin-2-yl)ethylidene)hydrazinyl)quinolin-8-ol] | – | – | 0.727 | 11300 | – | 16.2 | 14.4 | 9.5 | 1.5 | – | 88.6 | 11.40 | – | – | – | –
191 to 193 | COc1ccc(CNCc2cc([N+](=O)[O-])c3cccnc3c2O)cc1 [Example 27, 7-(((4-Methoxybenzyl)amino)methyl)-5-nitroquinolin-8-ol] | 0.31 | – | 0.31 | 6090 | 19.9 | 19.9 | 12.6 | 8.0 | 1.6 | – | – | – | – | – | – | –
– | Cl.Oc1c(CN2CCCC2)ccc2cccnc12 [NSC693871, 7-(pyrrolidin-1-ylmethyl)quinolin-8-ol hydrochloride, reference compound] | 1.47 | 1.47 | 1.47 | 6250 | 4.2 | 4.2 | 3.8 | 4.4 | 1.4 | retain a partial selective toxicity | 9.1 | 90.9 | insignificant loss | – | about 8.48 | ~10
133 to 136 | COc1ccc(CNCc2cc(Br)c3cccnc3c2O)cc1OC [Example 25, 5-Bromo-7-(((3,4-dimethoxybenzyl)amino)methyl)quinolin-8-ol] | 0.13 | 0.131 | 0.131 | 2910 | 22.3 | 22.3 | – | 9.4 | 1.6 | – | 92.30 | 7.70 | – | – | – | –
136 to 139 | COc1ccc(CNCc2cc(Cl)c3cccnc3c2O)c(OC)c1 [Example 26, 5-Chloro-7-(((2,4-dimethoxybenzyl)amino)methyl)quinolin-8-ol] | 0.13 | 0.133 | 0.13 | 2260 | 17.6 | 17.6 | 11.2 | 8.0 | 1.7 | – | – | – | – | – | – | –
204 to 206 | COc1ccc(CNCc2cc([N+](=O)[O-])c3cccnc3c2O)cc1OC [Example 30, 7-(((3,4-Dimethoxybenzyl)amino)methyl)-5-nitroquinolin-8-ol] | – | – | 1.22 | 23800 | – | 19.3 | 11.5 | 16.1 | 1.3 | – | – | – | – | – | – | –
– | Oc1c(C2NCCc3sccc32)cc(Cl)c2cccnc12 (stereo not drawn) [Example 17, 5-Chloro-7-(4,5,6,7-tetrahydrothieno[3,2-c]pyridin-4-yl)quinolin-8-ol] | – | – | – | – | – | – | 12.6 | – | – | – | – | – | – | sufficient to resensitize MES-SA/Dx5 cells to doxorubicin | – | –
